“Also recorded” adds a separate entry of the source. Where no end group is shown, it is not given here.
Assays:
CD8+ T-cells (PBMCs) = assay: In vitro peptide stimulation and T-cell proliferation assay, CD8+; type: cell-based, human
Method in brief: (§1)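 CellTrace Violet-labelled fresh PBMCs from type 1 diabetic and healthy donors cultured 7 days in 5% autologous plasma with or without 20 μg/ml insulin peptides. Proliferation measured by flow cytometry as dye dilution within the CD4+ or CD8+ subset. Stimulation index = % proliferation stimulated/% unstimulated.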

CD4+ T-cells (PBMCs) = assay: In vitro peptide stimulation and T-cell proliferation assay, CD4+; type: cell-based, human; conditions: Type 1 diabetes (N = 18)
Method in brief: as §1

[1] = system: CD4+ and CD8+ T-cells and IgG autoantibodies; assay: Overlap of CD4+, CD8+ and IgG antibody responses (Venn analysis); type: cell-based, human; conditions: type 1 diabetes
From the text: FIG. 13. Venn diagrams of CD4^+, CD8^+ and antibody response to oxPTM-INSPs. Panels a, b, and c show the overlap between IgG autoantibody and T-cell (CD4^+ and CD8^+) responses specific to oxPTM-INSP-3 (a), Nt-INSP-4 (b) and oxPTM-INSP-6 (c). Panels d, e, and f display the overlap between T-cell responses to the three insulin peptides and IgG to oxPTM-INS modified by hydroxyl radical (^●OH-INS). […] There is concordance between reactivity to oxPTM-INS and CD4^+ and CD8^+ reactivity for all three tested peptides (7/17, 8/18 and 8/18 for oxPTM-INSP-3, Nt-INSP-4 and oxPTM-INSP-6, respectively). The stimulatory index >1 was used for definition of positive T-cell response.
Correlation between T-cell stimulation and antibody response. Subjects evaluated for T-cell stimulation were also tested for antibody reactivity to either oxPTM-INSPs or oxidised intact insulin (oxPTM-INS) to assess correlations between humoral and cellular responses (FIG. 11-e-f). In study cohort 2, antibody reactivity to oxPTM-INSP-6 was the highest as observed in the study cohort 1, with 11/18 (61.1%) binding to at least one oxPTM-INSP-6 derivatives (p<0.001 oxPTM-INSP-6 vs. Nt-INSP-6). Detailed analysis of autoantibody response in this cohort is described in the ESM (ESM results Antibody binding to oxPTM-INSPs in Study cohort 2).
We then analysed the extent of correlation between CD4^+, CD8^+ and IgG antibody responses. […] The CD4^+ T cell response to Nt-INSP-4 frequently overlapped with CD8^+ (13/18 [72.2%]), and to a lesser extent to antibodies (7/18 [38.8%]). […] CD4^+ response to oxPTM-INSP-6 was linked to both CD8^+ and/or antibodies: […] patients had concordant CD4^+ and CD8^+ responses, while 9/18 (50%) patients had concordant CD4^+ and antibody responses. […] CD4^+ T-cell stimulation to Nt-INSP-4, oxPTM-INSP-6 and oxPTM-INSP-3 was associated with antibody reactivity to oxPTM-INS in 8/18 (44.4%), 8/18 (44.4%) and 7/18 (38.9%) type 1 diabetes patients.

[2] = system: autoantibodies to oxPTM-INS; assay: Competitive displacement ELISA, plate coated with oxidised insulin; type: binding, human
Description: A competitive displacement assay was performed to map the exact epitope, namely the exact amino acid sequence binding specificities and to test the binding to native peptides versus oxidised insulin peptides. The binding to the peptide was done by direct ELISA on the native or modified peptides or by competition ELISA. Initially native synthetic peptide was oxidised by exposing to 0.05 mM CuCl2; 90 mM H2O2; 10 mM NaOCl. Native and modified peptides were fractionated by AKTA to evaluated changes in molecular profile. AKTA fractions were then tested by ELISA for reactivity (FIGS. 2 and 3). We next perform competition ELISA with the native peptides and peptides exposed to 0.05 mM CuCl2; 90 mM H2O2; 10 mM NaOCl. Serum samples were pre-incubated with either native insulin peptides or oxidised insulin peptides. Finally, based on the amino acid sequence of the identified peptides we predicted the amino acids that would be oxidised by ^●OH and HOCl and designed synthetic peptides that contain the oxidised amino acids in the synthesis. Synthetic peptides were produced by standard commercially available methods, specifically by Peptide Protein Research Ltd. Briefly, peptide synthesis was performed by automated solid phase peptide synthesis (SPPS), which was followed by purification. Each individual amino acid was added to the growing chain according to the sequence. Where specified, dihydroxyphenylalanine was added to replace Tyr or cysteate were added to replace Cys. Similarly, these peptides were tested by competition ELISA. The table below describe the different competition ELISA performed:
Serum samples from children with type 1 diabetes were pre-incubated with the synthetic peptides before they were added to the native insulin or oxidised that were previously coated on the ELISA plate. If the antibodies in the serum sample bind to the peptide they will no longer bind to the insulin or oxidised insulin on the plate-competition ELISA. 1:200 dilutions of serum samples from T1D serum samples were pre-incubated for 2 hr at room temperature with the various peptides as shown in the table above. After incubation, serum/peptide mix was added to the ELISA plate previously coated overnight with either native insulin or oxidised insulin for an additional 2 hr incubation. Plates were then washed in a plate washer three times with PBS 0.05% tween. After washing, 100 ul of anti-human IgG diluted 1:1000 in 1% milk-PBS 0.05% tween were added for additional 1 hour and 30 min incubation. After washing, ELISA was developed by adding 100 ul of TMB (10 mg/ml in DMSO) in 10 ml of 0.1 M sodium acetate plus 2 ul of H2O2. Reaction was stopped by adding 0.5 M H2SO4 (usually 20 min for insulin ELISA).
To assess the binding specificity of serum samples to identified peptides, a competitive ELISA was performed. The ELISA was carried out following the method described above, except that the serum samples were pre-incubated for 2 h with and without 10 μg/ml peptides as competitors, before adding the serum samples to the insulin coated ELISA plate.

[3] = biological target: Serum IgG autoantibodies of subjects with type 1 diabetes (human); assay: competitive ELISA, T1D serum pre-incubated with peptide, plate coated with oxidised insulin (Example 3)
[4] = biological target: Serum IgG autoantibodies of subjects with type 1 diabetes (human); assay: competitive ELISA, T1D serum pre-incubated with peptide, plate coated with oxidised insulin (FIG. 2A)
[5] = biological target: Serum IgG autoantibodies of subjects with type 1 diabetes (human); assay: competitive ELISA, T1D serum pre-incubated with peptide, plate coated with oxidised insulin (FIG. 2B)

Molecule	CD8+ T-cell response, subjects with SI > 1 (%) (CD8+ T-cells (PBMCs); Controls (N = 11))	CD8+ T-cell response, subjects with SI > 1 (%) (CD8+ T-cells (PBMCs); Type 1 diabetes (N = 18))	CD4+ T-cell response, subjects with SI > 3 (%) (CD4+ T-cells (PBMCs))	concordance between reactivity to oxPTM-INS and CD4+ and CD8+ reactivity (patients/patients) ([1]; Study cohort 2)	patients with CD4+ T-cell stimulation associated with antibody reactivity to oxPTM-INS ([1]; Study cohort 2) [%]	patients with CD4+, CD8+ T-cells to the peptide and autoantibodies to oxPTM-INS simultaneously ([1]; Study cohort 2) [%]	patients with concordant CD4+ and antibody responses to the peptide ([1]; Study cohort 2) [%]	patients with concordant CD4+, CD8+ and IgG antibody response to the peptide ([1]; Study cohort 2) [%]	patients with overlapping (concordant) CD4+ and CD8+ responses to the peptide ([1]; Study cohort 2, SI >1) [%]	inhibition of type 1 diabetes serum binding to oxPTM-INS (in words) ([2]; sera pre-incubated with peptide competitor)	reduced binding to oxidised whole insulin ([2]; type 1 diabetes sera pre-incubated with peptide)	% reduction of serum binding to oxidised whole insulin [3] [%]	% reduction of serum binding to oxidised whole insulin [4] [%]	% reduction of serum binding to oxidised whole insulin [5] [%]
oxPTM-INSP-6: oxidised forms of insulin peptide 6 (B:21-30), in house oxidised or in silico derivatives (ERGFFYTPKT; not fully specified (N-terminus); also: oxidised forms, in house oxidised or in silico derivatives, modified residues not defined)	27.3	72.2	66.7	8/18	44.4	33.3	50	44.4	72.2	strongly inhibited binding to oxPTM-INS; also recorded: able to inhibit the binding	35-75%			
SLYQLENYCN (not fully specified (N-terminus); also: oxidised in house (CuCl2, H2O2, NaOCl), modified residues not defined) [oxPTM-INSP-3, peptide 3 oxidised in house (oxidant not specified at the place)]												40 to 80	35 to 80	
ERGFFYTPKT (not fully specified (N-terminus); also: oxidised in house (CuCl2, H2O2, NaOCl), modified residues not defined) [oxPTM-INSP-6, peptide 6 oxidised in house (oxidant not specified at the place)]												35 to 70		35 to 75
